“Also recorded” adds a separate entry of the source. Like-named read-outs stand apart in the source and are kept apart here.
Legend:
[1] = type: physicochemical; settings: for Further dilution in Mannitol:Water Solubility: FCP 0.167 mM, 1.33% (w/v) mannitol, cloudiness / particulates; for Dispersion in Water Solubility: FCP 1.333 mM in water, vortexed and sonicated, cloudiness (Clear/Cloudy−/Cloudy/Cloudy+) / particulates
Method: The solubility of each FCP in water was assessed. Each FCP was dispersed in 300 μl of water to a final concentration of 1.333 mM and vortexed and sonicated. The typical dispersion conditions were four sequences of three minutes bath sonication interspersed by 30 seconds vortexing. After inspection, the resulting solution was diluted with a mannitol solution (a candidate lyophilisation medium, final concentration of peptide 0.167 mM, 1.33% (w/v) mannitol). Solubility was assessed by visual observation of the cloudiness of the resulting dispersion (scaled: Clear/Cloudy−/Cloudy/Cloudy+) and presence of particulates. […]

[2] = type: physicochemical; settings: for Percentage acetic acid (% v/v): minimum concentration for acceptable dispersibility and solubility: FCP 2 μmol/ml after acetic acid dispersion; for Visual appearance after dispersion: at the listed acetic acid concentration, FCP 2 μmol/ml; for Physical stability of formulation at less than 80% (v/v) acetic acid: gel or soluble particulates formed over time
Method: In order to limit the concentration of acetic acid downstream in the formulation process and in the final product, the lowest concentration of acetic acid in water to achieve efficient dispersion and maintain visible solubility was determined for each fluorocarbon-linked peptide. When using mannitol as a cryprotectant, it is important to minimize the acetic acid concentration at the lyophilisation stage in order to achieve a stable and amorphous freeze-dried product. The minimum acetic acid concentration to achieve acceptable dispersibility and solubility of the individual fluorocarbon-linked peptides was determined. The final concentration of fluorocarbon-linked peptide after initial acetic acid dispersion was 2 μmol/ml and after dilution with mannitol, 0.250 μmol/ml.

[3] = type: physicochemical; settings: 1.33% mannitol, 0.22 μm PVDF filter; for YIELD % of each FCP following sterile filtration, MIX 1: MIX 1 dispersed in water; for YIELD % of each FCP following sterile filtration, MIX 2: MIX 2 dispersed in water
[4] = 10 mg net/ml in 10% or 80% acetic acid

CC[C@H](C)[C@H](NC(=O)[C@H](CO)NC(=O)[C@H](CC(C)C)NC(=O)[C@@H](NC(=O)[C@H](CC(N)=O)NC(=O)[C@H](CCCNC(=N)N)NC(=O)[C@H](Cc1ccccc1)NC(=O)[C@H](Cc1c[nH]c2ccccc12)NC(=O)[C@H](CCC(=O)O)NC(=O)[C@@H]1CCCN1C(=O)[C@H](CCC(N)=O)NC(=O)[C@H](CC(N)=O)NC(=O)[C@H](CCCNC(=N)N)NC(=O)[C@@H](NC(=O)[C@@H](NC(=O)[C@H](Cc1ccc(O)cc1)NC(=O)[C@@H](N)CCCCNC(=O)CCC(F)(F)C(F)(F)C(F)(F)C(F)(F)C(F)(F)C(F)(F)C(F)(F)C(F)(F)F)[C@@H](C)CC)[C@@H](C)O)C(C)C)C(=O)N[C@@H](C)C(=O)N1CCC[C@H]1C(=O)N[C@H](C(=O)N[C@@H](CCSC)C(=O)N[C@@H](Cc1ccccc1)C(=O)N[C@@H](CO)C(=O)N[C@@H](CC(N)=O)C(=O)N[C@@H](CCCCN)C(=O)N[C@@H](CCSC)C(=O)N[C@@H](C)C(=O)N[C@@H](CCCNC(=N)N)C(=O)N[C@@H](CC(C)C)C(=O)NCC(=O)N[C@@H](CCCCN)C(=O)NCC(=O)N[C@@H](Cc1ccc(O)cc1)C(=O)N[C@@H](CCSC)C(=O)N[C@@H](Cc1ccccc1)C(=O)N[C@@H](CCC(=O)O)C(N)=O)[C@@H](C)CC [FCP9]
Further dilution in Mannitol:Water Solubility [1]: partially soluble; also recorded: Clear/Particulates | Dispersion in Water Solubility [1]: Cloudy−/Particulates | Percentage acetic acid (% v/v): minimum concentration for acceptable dispersibility and solubility [2]: 80 % v/v | Visual appearance after dispersion [2]: Clear | Physical stability of formulation at less than 80% (v/v) acetic acid [2]: physically unstable over time | YIELD % of each FCP following sterile filtration, MIX 1 [3]: 22.9% | Ease of solubility, Cycle 1 Vortexing (10 mg net/ml in 10% (FCP1, 2, 4, 5) or 80% (FCP9, 8) acetic acid): Particulates− | Ease of solubility, Cycle 1 Sonication [4]: Clear | Ease of solubility, Cycle 2 Sonication [4]: Clear | Ease of solubility, Cycle 2 Vortexing [4]: Clear | Ease of solubility, Cycle 3 Sonication [4]: Clear | Ease of solubility, Cycle 3 Vortexing [4]: Clear | Visual appearance after dispersion (10 mg net/ml in AcOH 10% or 80%): Clear

CC[C@H](C)[C@H](NC(=O)[C@H](CO)NC(=O)[C@H](CC(C)C)NC(=O)[C@@H](NC(=O)[C@H](CC(N)=O)NC(=O)[C@H](CCCNC(=N)N)NC(=O)[C@H](Cc1ccccc1)NC(=O)[C@H](Cc1c[nH]c2ccccc12)NC(=O)[C@H](CCC(=O)O)NC(=O)[C@@H]1CCCN1C(=O)[C@H](CCC(N)=O)NC(=O)[C@H](CC(N)=O)NC(=O)[C@H](CCCCN)NC(=O)[C@@H](NC(=O)[C@@H](NC(=O)[C@H](Cc1ccc(O)cc1)NC(=O)[C@@H](N)CCCCNC(=O)CCC(F)(F)C(F)(F)C(F)(F)C(F)(F)C(F)(F)C(F)(F)C(F)(F)C(F)(F)F)[C@@H](C)CC)[C@@H](C)O)[C@@H](C)CC)C(=O)N[C@@H](C)C(=O)N1CCC[C@H]1C(=O)N[C@H](C(=O)N[C@@H](CCSC)C(=O)N[C@@H](Cc1ccccc1)C(=O)N[C@@H](CO)C(=O)N[C@@H](CC(N)=O)C(=O)N[C@@H](CCCCN)C(=O)N[C@@H](CCSC)C(=O)N[C@@H](C)C(=O)N[C@@H](CCCNC(=N)N)C(=O)N[C@@H](CC(C)C)C(=O)NCC(=O)N[C@@H](CCCCN)C(=O)NCC(=O)N[C@@H](Cc1ccc(O)cc1)C(=O)N[C@@H](CCSC)C(=O)N[C@@H](Cc1ccccc1)C(=O)N[C@@H](CCC(=O)O)C(N)=O)[C@@H](C)CC [FCP10]
Further dilution in Mannitol:Water Solubility [1]: partially soluble; also recorded: Clear/Particulates | Dispersion in Water Solubility [1]: Cloudy−/Particulates | YIELD % of each FCP following sterile filtration, MIX 2 [3]: 90.7%

CC[C@H](C)[C@H](NC(=O)[C@H](CO)NC(=O)[C@@H](NC(=O)CNC(=O)[C@H](CC(C)C)NC(=O)[C@@H](NC(=O)[C@@H](NC(=O)[C@H](CO)NC(=O)[C@H](CC(C)C)NC(=O)[C@H](CCSC)NC(=O)[C@H](CC(N)=O)NC(=O)[C@H](Cc1ccccc1)NC(=O)[C@H](CCSC)NC(=O)CNC(=O)[C@H](CCSC)NC(=O)[C@H](CCSC)NC(=O)[C@H](CCSC)NC(=O)CNC(=O)[C@@H]1CCCN1C(=O)[C@H](CO)NC(=O)[C@@H](N)CCCCNC(=O)CCC(F)(F)C(F)(F)C(F)(F)C(F)(F)C(F)(F)C(F)(F)C(F)(F)C(F)(F)F)[C@@H](C)O)C(C)C)C(C)C)C(=O)N[C@@H](CC(C)C)C(=O)N[C@@H](CC(N)=O)C(=O)N[C@@H](CC(C)C)C(=O)NCC(=O)N[C@@H](CCC(N)=O)C(=O)N[C@@H](CCCCN)C(=O)N[C@@H](CCCCN)C(=O)N[C@@H](Cc1ccc(O)cc1)C(=O)N[C@H](C(=O)N[C@@H](CCCCN)C(=O)N[C@H](C(=O)N[C@H](C(=O)N[C@@H](Cc1ccc(O)cc1)C(N)=O)[C@@H](C)O)[C@@H](C)O)[C@@H](C)O [FCP6]
Further dilution in Mannitol:Water Solubility [1]: partially soluble; also recorded: Clear/Particulates | Dispersion in Water Solubility [1]: Cloudy−/Particulates | Percentage acetic acid (% v/v): minimum concentration for acceptable dispersibility and solubility [2]: 80 % v/v | Visual appearance after dispersion [2]: Clear | Physical stability of formulation at less than 80% (v/v) acetic acid [2]: physically unstable over time | YIELD % of each FCP following sterile filtration, MIX 1 [3]: 74.1% | YIELD % of each FCP following sterile filtration, MIX 2 [3]: 8.8%

CC[C@H](C)[C@H](NC(=O)[C@@H]1CCCN1C(=O)[C@H](C)NC(=O)[C@@H](N)CCCCNC(=O)CCC(F)(F)C(F)(F)C(F)(F)C(F)(F)C(F)(F)C(F)(F)C(F)(F)C(F)(F)F)C(=O)N[C@@H](CCSC)C(=O)N[C@@H](Cc1ccccc1)C(=O)N[C@@H](CO)C(=O)N[C@@H](CC(N)=O)C(=O)N[C@@H](CCCCN)C(=O)N[C@@H](CCSC)C(=O)N[C@@H](C)C(=O)N[C@@H](CCCNC(=N)N)C(=O)N[C@@H](CC(C)C)C(=O)NCC(=O)N[C@@H](CCCCN)C(=O)NCC(=O)N[C@@H](Cc1ccc(O)cc1)C(=O)N[C@@H](CCSC)C(=O)N[C@@H](Cc1ccccc1)C(=O)N[C@@H](CCC(=O)O)C(=O)N[C@@H](CO)C(=O)N[C@@H](CCCCN)C(=O)N[C@@H](CO)C(=O)N[C@@H](CCSC)C(=O)N[C@@H](CCCCN)C(=O)N[C@@H](CC(C)C)C(=O)N[C@@H](CCCNC(=N)N)C(=O)N[C@H](C(=O)N[C@@H](CCC(N)=O)C(=O)N[C@H](C(=O)N1CCC[C@H]1C(=O)N[C@@H](C)C(=O)N[C@@H](CCC(=O)O)C(=O)N[C@@H](CCSC)C(=O)N[C@@H](CC(C)C)C(=O)N[C@@H](C)C(N)=O)[C@@H](C)CC)[C@@H](C)O [FCP3]
Further dilution in Mannitol:Water Solubility [1]: partially soluble; also recorded: Clear/Particulates | Dispersion in Water Solubility [1]: Cloudy−/Particulates | YIELD % of each FCP following sterile filtration, MIX 1 [3]: 28.6%

CC[C@H](C)[C@H](NC(=O)[C@H](CCCNC(=N)N)NC(=O)[C@H](CCSC)NC(=O)CNC(=O)[C@H](CO)NC(=O)CNC(=O)[C@H](CCCNC(=N)N)NC(=O)[C@@H](NC(=O)[C@H](CC(N)=O)NC(=O)[C@@H](NC(=O)[C@@H](NC(=O)[C@H](CC(C)C)NC(=O)[C@H](CO)NC(=O)[C@H](CO)NC(=O)[C@H](Cc1ccccc1)NC(=O)[C@H](CCC(N)=O)NC(=O)[C@H](CCSC)NC(=O)[C@H](CCCNC(=N)N)NC(=O)[C@H](CO)NC(=O)[C@H](CCC(N)=O)NC(=O)[C@@H](N)CCCCNC(=O)CCC(F)(F)C(F)(F)C(F)(F)C(F)(F)C(F)(F)C(F)(F)C(F)(F)C(F)(F)F)[C@@H](C)O)C(C)C)C(C)C)C(=O)N[C@@H](CC(C)C)C(=O)N[C@H](C(=O)N[C@@H](CCCNC(=N)N)C(=O)NCC(=O)N[C@@H](CC(N)=O)C(=O)N[C@@H](CO)C(=O)N1CCC[C@H]1C(=O)N[C@H](C(=O)N[C@@H](Cc1ccccc1)C(=O)N[C@@H](CC(N)=O)C(=O)N[C@@H](Cc1ccc(O)cc1)C(=O)N[C@@H](CC(N)=O)C(=O)N[C@@H](CCCCN)C(N)=O)C(C)C)C(C)C [FCP11]
Further dilution in Mannitol:Water Solubility [1]: fully soluble; also recorded: Clear/No Particulates | Dispersion in Water Solubility [1]: fully soluble; also recorded: Clear/No Particulates | YIELD % of each FCP following sterile filtration, MIX 2 [3]: 49.4%
